Columns and labels:
Assay type in all cases: in vivo
Glycine max (GLXMA) = assay: Post-emergence effects on crop plants, section F (Table F4); conditions: Glycine max, 504 h, application rate 320 g/ha, read-out: post-emergence activity against GLXMA in %
Excerpt: (§1) Seeds of mono- and dicotyledonous weed plants and crop plants were sown, in plastic or organic planting pots, in sandy loam, covered with soil and grown in a greenhouse under controlled growth conditions. 2 to 3 weeks after sowing, the test plants were sprayed in the single-leaf stage. The compounds according to the invention, formulated in form of wettable powders (WP) or as emulsifiable concentrates (EC), were sprayed onto the green plant parts as aqueous suspension or emulsion, with the addition of 0.5% of an additive, at an application rate of 600 l of water/ha (converted). The test plants were placed in the greenhouse for ca. 3 weeks under optimum growth conditions, and then the effect of the preparations was assessed visually in comparison with untreated controls (herbicidal effect in percent (%): 100% effect=plants have died off, 0% effect=as control plants). Tables F1 to F4 below show the effects of selected compounds of the general formula (I) according to Table 1 on various crop plants and an application rate corresponding to 320 g/ha or below obtained by the experimental procedure mentioned above.

[1] = system: Triticum aestivum (TRZAS); assay: Post-emergence effects on crop plants, section F (Table F2); conditions: Triticum aestivum, 504 h, application rate 320 g/ha, read-out: post-emergence activity against TRZAS in %
Excerpt: as §1

Zea mays (ZEAMX) [2] = assay: Post-emergence effects on crop plants, section F (Table F1); conditions: Zea mays, 504 h, application rate 80 g/ha, read-out: post-emergence activity against ZEAMX in %
Excerpt: as §1

Setaria viridis (SETVI) [3] = assay: Herbicidal pre-emergence action, section C (Table C8); conditions: Setaria viridis, pre-emergence, 504 h; application rate 320 g/ha; visual grading after ca. 3 weeks; read-out: pre-emergence activity against SETVI in %
Excerpt: (§2) Seeds of mono- and dicotyledonous weed plants and crop plants were sown, in plastic or organic planting pots, in sandy loam and covered with soil. The compounds according to the invention, formulated in the form of wettable powders (WP) or as emulsifiable concentrates (EC), were applied to the surface of the covering soil as aqueous suspension or emulsion, with the addition of 0.5% of an additive, at an application rate of 600 l of water/ha (converted). Following treatment, the pots were placed in a greenhouse and kept under optimum growth conditions for the test plants. The visual grading of the damage to the test plants was carried out after ca. 3 weeks in comparison to untreated controls (herbicidal effect in percent (%): 100% effect=plants have died off, 0% effect=as control plants).

[4] = system: Echinochloa crus-galli (ECHCG); assay: Herbicidal pre-emergence action, section C (Table C3); conditions: Echinochloa crus-galli, pre-emergence, 504 h; application rate 320 g/ha; visual grading after ca. 3 weeks vs untreated controls; read-out: pre-emergence activity against ECHCG in %
Excerpt: as §2

[5] = system: Triticum aestivum (TRZAS); assay: Pre-emergence effects on crop plants, section D (Table D2); conditions: application rate 320 g/ha; visual grading after ca. 3 weeks
Excerpt: (§3) Seeds of mono- and dicotyledonous weed plants and crop plants were sown, in plastic or organic planting pots, in sandy loam and covered with soil. The compounds according to the invention, formulated in the form of wettable powders (WP) or as emulsifiable concentrates (EC), were applied to the surface of the covering soil as aqueous suspension or emulsion, with the addition of 0.5% of an additive, at an application rate of 600 l of water/ha (converted).
(§4) Following treatment, the pots were placed in a greenhouse and kept under optimum growth conditions for the test plants. The visual grading of the damage to the test plants was carried out after ca. 3 weeks in comparison to untreated controls (herbicidal effect in percent (%): 100% effect=plants have died off, 0% effect=as control plants).
(§5) Tables D1 to D5 below show the effects of various compounds of the general formula (I) according to Table 1 on various crop plants and an application rate corresponding to 320 g/ha or below obtained by the experimental procedure mentioned above in Biological Examples, Section C.

Zea mays (ZEAMX) [6] = assay: Pre-emergence effects on crop plants, section D (Table D1); conditions: application rate 320 g/ha; visual grading after ca. 3 weeks
Excerpt: as §3, §4, §5

[7] = system: Digitaria sanguinalis (DIGSA); assay: Herbicidal pre-emergence action, section C (Table C12); conditions: Digitaria sanguinalis, pre-emergence, 504 h; application rate 320 g/ha; visual grading after ca. 3 weeks; read-out: pre-emergence activity against DIGSA in %
Excerpt: as §2

[8] = system: Amaranthus retroflexus (AMARE); assay: Herbicidal post-emergence action, section B (Table B11); conditions: application rate 1280 g/ha; visual rating about 3 weeks after treatment vs untreated controls
Method: (§6) Seeds of mono- and dicotyledonous weed plants were placed in plastic pots in sandy loam soil (doubly sown with in each case one species of mono- or dicotyledonous weed plants per pot), covered with soil and cultivated in a greenhouse under controlled growth conditions. 2 to 3 weeks after sowing, the test plants were treated at the one-leaf stage. The compounds of the invention, formulated in the form of wettable powders (WP) or as emulsion concentrates (EC), were applied onto the green parts of the plants as aqueous suspension or emulsion with addition of 0.5% additive at a water application rate of 600 liters per hectare (converted). After the test plants had been kept in the greenhouse under optimum growth conditions for about 3 weeks, the activity of the preparations was rated visually in comparison to untreated controls. For example, 100% activity=the plants have died, 0% activity=like control plants.

[9] = system: Echinochloa crus-galli (ECHCG); assay: Herbicidal post-emergence action, section B (Table B3); conditions: application rate 1280 g/ha, rated visually after about 3 weeks
Method: as §6

Poa annua (POAAN) [10] = assay: Herbicidal post-emergence action, section B (Table B7); conditions: application rate 1280 g/ha; visual rating about 3 weeks after treatment vs untreated controls
Method: as §6

Poa annua (POAAN) [11] = assay: Herbicidal pre-emergence action, section A (Table A7); conditions: application rate 1280 g/ha; visual grading after ca. 3 weeks vs untreated controls
Excerpt: as §2, with “plants” for “plants and crop plants”, “sown” for “sown,”, “pots (double sowings with one species of mono- and one species of dicotyledonous weed plants per pot),” for “or organic planting pots,”, “loam,” for “loam”, “water per hectare” for “water/ha”

Veronica persica (VERPE) = assay: Herbicidal post-emergence action, section B (Table B10); conditions: application rate 320 g/ha; visual rating about 3 weeks after treatment vs untreated controls
Method: as §6

Setaria viridis (SETVI) [12] = assay: Herbicidal pre-emergence action, section A (Table A8); conditions: application rate 1280 g/ha
Excerpt: as §2, with “plants” for “plants and crop plants”, “sown” for “sown,”, “pots (double sowings with one species of mono- and one species of dicotyledonous weed plants per pot),” for “or organic planting pots,”, “loam,” for “loam”, “water per hectare” for “water/ha”

[13] = system: Abutilon theophrasti (ABUTH); assay: Herbicidal post-emergence action, section B (Table B1); conditions: application rate 1280 g/ha, rated visually after about 3 weeks
Method: as §6

Stellaria media (STEME) [14] = assay: Herbicidal post-emergence action, section B (Table B9); conditions: application rate 1280 g/ha; visual rating about 3 weeks after treatment vs untreated controls
Method: as §6

[15] = system: Digitaria sanguinalis (DIGSA); assay: Herbicidal pre-emergence action, section A (Table A12); conditions: application rate 1280 g/ha
Excerpt: as §2, with “plants” for “plants and crop plants”, “sown” for “sown,”, “pots (double sowings with one species of mono- and one species of dicotyledonous weed plants per pot),” for “or organic planting pots,”, “loam,” for “loam”, “water per hectare” for “water/ha”

[16] = system: Digitaria sanguinalis (DIGSA); assay: Herbicidal post-emergence action, section B (Table B12); conditions: application rate 1280 g/ha; visual rating about 3 weeks after treatment vs untreated controls
Method: as §6

[17] = system: Amaranthus retroflexus (AMARE); assay: Herbicidal pre-emergence action, section A (Table A11); conditions: application rate 1280 g/ha
Excerpt: as §2, with “plants” for “plants and crop plants”, “sown” for “sown,”, “pots (double sowings with one species of mono- and one species of dicotyledonous weed plants per pot),” for “or organic planting pots,”, “loam,” for “loam”, “water per hectare” for “water/ha”

Kochia scoparia (KCHSC) = assay: Herbicidal pre-emergence action, section A (Table A4); conditions: application rate 1280 g/ha; visual grading after ca. 3 weeks vs untreated controls
Excerpt: as §2, with “plants” for “plants and crop plants”, “sown” for “sown,”, “pots (double sowings with one species of mono- and one species of dicotyledonous weed plants per pot),” for “or organic planting pots,”, “loam,” for “loam”, “water per hectare” for “water/ha”

Stellaria media (STEME) [18] = assay: Herbicidal pre-emergence action, section A (Table A9); conditions: application rate 1280 g/ha
Excerpt: as §2, with “plants” for “plants and crop plants”, “sown” for “sown,”, “pots (double sowings with one species of mono- and one species of dicotyledonous weed plants per pot),” for “or organic planting pots,”, “loam,” for “loam”, “water per hectare” for “water/ha”

COC(=O)CCC(=O)N1CSc2cc(Br)c(-c3sccc3Cl)nc21 [Example I-077, methyl 4-[6-bromo-5-(3-chloro-2-thienyl)-2H-thiazolo[4,5-b]pyridin-3-yl]-4-oxo-butanoate]
percent crop plant damage at 320 g/ha (Glycine max (GLXMA)): 10% | percent crop plant damage (wheat, post-emergence) at 320 g/ha [1]: 20% | percent crop plant damage (phytotoxicity) on Zea mays, post-emergence at 80 g/ha (Zea mays (ZEAMX) [2]): 0% | pest or weed control at 320 g/ha (Setaria viridis (SETVI) [3]): 90% | pest or weed control at 320 g/ha [4]: 90% | pre-emergence activity against TRZAS in % (crop plant damage) [5]: 0% | pre-emergence activity against ZEAMX in % (crop plant damage) (Zea mays (ZEAMX) [6]): 10% | pest or weed control at 320 g/ha [7]: 90%

COC(=O)CCC(=O)N1CSc2cc(Br)c(-c3ccc(F)cc3F)nc21 [Example I-085]
post-emergence activity against AMARE in % [8]: 90% | post-emergence activity against ECHCG in % [9]: 90% | post-emergence activity against POAAN in % (Poa annua (POAAN) [10]): 90% | pre-emergence activity against POAAN in % (Poa annua (POAAN) [11]): 100% | post-emergence activity against VERPE in % (Veronica persica (VERPE)): 100% | pre-emergence activity against SETVI in % (Setaria viridis (SETVI) [12]): 100% | post-emergence activity against ABUTH in % [13]: 90% | post-emergence activity against STEME in % (Stellaria media (STEME) [14]): 90%

CC(=O)N1CSc2cc(Br)c(-c3cccc(Cl)c3F)nc21 [Example I-115]
pre-emergence activity against DIGSA in % [15]: 100% | post-emergence activity against DIGSA in % [16]: 90% | pre-emergence activity against AMARE in % [17]: 90% | pre-emergence activity against KCHSC in % (Kochia scoparia (KCHSC)): 90% | post-emergence activity against POAAN in % (Poa annua (POAAN) [10]): 90% | pre-emergence activity against STEME in % (Stellaria media (STEME) [18]): 90%

Reference: patent US20240381872A1, “SUBSTITUTED 2,3-DIHYDRO[1,3]THIAZOLO[4,5-B]PYRIDINES, SALTS THEREOF AND THEIR USE AS HERBICIDALLY ACTIVE SUBSTANCES” (BAYER AKTIENGESELLSCHAFT, priority 2021, published 2024)
